Assay results published in ChEMBL document CHEMBL1139687, “Inhibitory effect of carboxylic acid group on hERG binding” (Bioorg Med Chem Lett, 2006).

Biological target: Voltage-gated inwardly rectifying potassium channel KCNH2 (Homo sapiens, UniProt Q12809)
Test: Displacement of [3H]dofetilide from human ERG potassium channel expressed in HEK293 cells

Voltage-gated inwardly rectifying potassium channel KCNH2, sequence (Q12809 whole entry): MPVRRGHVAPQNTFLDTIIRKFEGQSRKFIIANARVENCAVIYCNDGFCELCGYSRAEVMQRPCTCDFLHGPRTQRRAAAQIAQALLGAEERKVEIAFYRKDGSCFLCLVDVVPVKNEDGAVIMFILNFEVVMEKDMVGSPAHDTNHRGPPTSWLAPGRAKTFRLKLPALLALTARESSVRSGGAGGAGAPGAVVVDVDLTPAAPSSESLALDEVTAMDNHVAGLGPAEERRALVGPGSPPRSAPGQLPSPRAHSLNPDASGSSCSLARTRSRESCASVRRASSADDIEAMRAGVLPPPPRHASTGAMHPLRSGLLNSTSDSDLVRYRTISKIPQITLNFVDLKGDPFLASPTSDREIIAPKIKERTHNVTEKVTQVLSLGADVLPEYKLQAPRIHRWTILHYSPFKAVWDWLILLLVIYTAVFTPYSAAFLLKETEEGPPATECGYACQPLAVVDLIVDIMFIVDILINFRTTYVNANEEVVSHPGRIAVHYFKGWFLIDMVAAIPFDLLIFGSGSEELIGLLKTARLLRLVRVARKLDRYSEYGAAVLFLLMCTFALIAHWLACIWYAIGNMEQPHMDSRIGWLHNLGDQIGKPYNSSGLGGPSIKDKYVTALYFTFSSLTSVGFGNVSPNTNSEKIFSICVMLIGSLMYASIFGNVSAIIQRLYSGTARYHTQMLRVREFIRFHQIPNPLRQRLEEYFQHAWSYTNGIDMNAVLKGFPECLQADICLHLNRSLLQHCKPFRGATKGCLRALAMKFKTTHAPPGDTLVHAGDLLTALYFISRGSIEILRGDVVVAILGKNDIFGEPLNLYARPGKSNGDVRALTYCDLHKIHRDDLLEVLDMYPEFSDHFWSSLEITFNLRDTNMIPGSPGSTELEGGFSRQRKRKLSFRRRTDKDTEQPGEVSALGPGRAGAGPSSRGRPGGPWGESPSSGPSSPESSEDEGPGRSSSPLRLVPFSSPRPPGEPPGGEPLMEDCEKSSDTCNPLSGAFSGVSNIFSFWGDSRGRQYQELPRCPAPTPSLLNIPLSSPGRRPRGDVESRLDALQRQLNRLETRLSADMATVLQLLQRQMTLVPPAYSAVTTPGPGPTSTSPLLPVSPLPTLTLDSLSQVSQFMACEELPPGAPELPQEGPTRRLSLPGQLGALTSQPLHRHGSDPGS

Which Ki does the source give for `CCOC(=O)C1CCN(C(=N)c2ccc(C(=O)Nc3ccc(Cl)cc3C(=O)Nc3ccc(Cl)cn3)cc2)CC1` here?
Its Ki is 17 nM.

How did the Ki turn out when `N=C(c1ccc(C(=O)Nc2ccc(Cl)cc2C(=O)Nc2ccc(Cl)cn2)cc1)N1CCCC(C(=O)O)C1` (configuration not stated) was run?
Its Ki is > 10000 nM.

Which Ki does the source give for `COC(=O)c1ccc(Oc2ccc(NC(=O)c3ccc(C(=N)N(C)C)cc3)c(C(=O)Nc3ccc(Cl)cn3)c2)cc1` here?
Its Ki is 570 nM.

Which Ki does the source give for `CN(C)C(=N)c1ccc(C(=O)Nc2ccc(Sc3ccc(C(=O)O)cc3)cc2C(=O)Nc2ccc(Cl)cn2)cc1` here?
The Ki was 4600 nM.

Which Ki does the source give for `CN(C)C(=N)c1ccc(C(=O)Nc2ccc(Cl)cc2C(=O)Nc2ccc(Cl)cn2)c(N2CCCCC2C(=O)O)c1` (configuration not stated) here?
The Ki was > 2000 nM.

`CN(C)C(=N)c1ccc(C(=O)Nc2ccc(Oc3ccc(C(=O)O)cc3)cc2C(=O)Nc2ccc(Cl)cn2)cc1` was tested. Which Ki did it give?
Its Ki is > 10000 nM.

With `Cc1cc(C(=O)Nc2ccc(C(=N)N3CCCC3)cc2)n(-c2cc3ccccc3cc2C(=O)O)n1` as the compound, how does the Ki read?
The Ki was > 10000 nM.

For `CN(CC(=O)O)C(=N)c1ccc(C(=O)Nc2ccc(Cl)cc2C(=O)Nc2ccc(Cl)cn2)cc1`, which Ki is on record?
The Ki was 1400 nM.

How did the Ki turn out when `COC(=O)CCc1ccc(NC(=O)c2ccc(C(=N)N(C)C)cc2)c(C(=O)Nc2ccc(Cl)cn2)c1` was run?
The Ki was 790 nM.

`CN(CCCC(=O)O)C(=N)c1ccc(C(=O)Nc2ccc(Cl)cc2C(=O)Nc2ccc(Cl)cn2)cc1` was tested. Which Ki did it give?
Its Ki is 1400 nM.

How did the Ki turn out when `CCOC(=O)C1CCN(C(=N)c2ccc(C(=O)Nc3c(OC)cc(Cl)cc3C(=O)Nc3ccc(Cl)cn3)c(F)c2)CC1` was run?
The Ki was 51 nM.

How did the Ki turn out when `CN(C)C(=N)c1ccc(C(=O)Nc2ccc(Sc3ccc(C(=O)N(C)C)cc3)cc2C(=O)Nc2ccc(Cl)cn2)cc1` was run?
Its Ki is 370 nM.

With `COc1cc(Cl)cc(C(=O)Nc2ccc(Cl)cn2)c1NC(=O)c1ccc(C(=N)N2CCC(C(=O)O)CC2)cc1F` as the compound, how does the Ki read?
The Ki was > 10000 nM.

Which Ki does the source give for `CN(C)C(=N)c1ccc(C(=O)Nc2ccc(Cl)cc2C(=O)Nc2ccc(Cl)cn2)cc1` here?
The Ki was 100 nM.

How did the Ki turn out when `CN(C)C(=N)c1ccc(C(=O)Nc2ccc(Cl)cc2C(=O)Nc2ccc(Cl)cn2)c(N2CCC(C(=O)O)CC2)c1` was run?
The Ki was > 10000 nM.

How did the Ki turn out when `C/C(=C(\F)C(=O)N(CC(=O)O)c1ccc(-c2ccccc2S(N)(=O)=O)cc1)c1cccc(C(=N)N)c1` was run?
The Ki was > 10000 nM.

How did the Ki turn out when `CN(C)C(=N)c1ccc(CN2C(=O)CN(S(=O)(=O)c3cc4cc(Cl)ccc4[nH]3)C[C@@H]2C(=O)O)cc1` was run?
The Ki was > 10000 nM.

Which Ki does the source give for `CN(C)C(=N)c1ccc(C(=O)Nc2ccc(Cl)cc2C(=O)Nc2ccc(Cl)cn2)c(N(C)CCCC(=O)O)c1` here?
The Ki was > 6600 nM.

`Cc1cc(C(=O)Nc2ccc(-c3ccccc3CN3CCCCC3)cc2F)n(-c2cc3ccccc3cc2F)n1` was tested. Which Ki did it give?
The Ki was 1000 nM.

Which Ki does the source give for `CN1CCN=C1c1ccc(C(=O)N2CCN(S(=O)(=O)c3cc4ccc(Cl)cc4s3)CC2CC(=O)N2CCCC(C(=O)O)C2)cc1` (configuration not stated) here?
Its Ki is > 10000 nM.

With `CN1CCN=C1c1ccc(C(=O)N2CCN(S(=O)(=O)c3cc4ccc(Cl)cc4s3)CC2CC(=O)N2CCOCC2)cc1` (configuration not stated) as the compound, how does the Ki read?
Its Ki is 600 nM.

For `CC(=N)N1CCC(Oc2ccc(N(Cc3ccc4ccc(C(=N)N)cc4c3)S(=O)(=O)CC(=O)O)cc2)CC1` [YM-60828], which Ki is on record?
Its Ki is > 10000 nM.
